Assay results: ChEMBL document CHEMBL5209585, “FFN206 based assay for SLC18A2 using HEK-293 SLC18A2 OE cells” (2022)
pEC50, pIC50: −log10 of the molar value.

Target: Synaptic vesicular amine transporter (Homo sapiens, UniProt Q05940)
Experiment: Substrate uptake and inhibition of the Vesicular Amine Transporter 2 (VMAT2, SLC18A2) as assessed by uptake of a fluorescent substrate (FFN206) in HEK-293 JumpIN-SLC18A2 cells (PubChem AID: 1794817)
Type: functional, cell-based, HEK293

Chain of Synaptic vesicular amine transporter (Q05940 whole entry): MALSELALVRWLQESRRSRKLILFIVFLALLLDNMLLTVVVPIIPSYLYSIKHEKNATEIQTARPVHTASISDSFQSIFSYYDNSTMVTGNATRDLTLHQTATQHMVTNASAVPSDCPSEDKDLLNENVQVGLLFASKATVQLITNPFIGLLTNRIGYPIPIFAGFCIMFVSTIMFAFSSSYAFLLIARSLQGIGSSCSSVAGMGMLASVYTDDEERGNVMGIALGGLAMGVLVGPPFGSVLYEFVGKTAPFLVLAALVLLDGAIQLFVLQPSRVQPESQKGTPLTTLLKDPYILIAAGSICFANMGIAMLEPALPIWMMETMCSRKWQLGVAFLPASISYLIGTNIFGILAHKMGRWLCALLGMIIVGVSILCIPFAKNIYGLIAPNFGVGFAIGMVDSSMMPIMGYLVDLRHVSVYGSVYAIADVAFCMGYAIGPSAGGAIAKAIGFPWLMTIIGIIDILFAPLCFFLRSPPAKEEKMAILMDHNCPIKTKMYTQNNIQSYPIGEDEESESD

Row | SMILES | pEC50 | pIC50
1 | CNc1ccc2c(CCN)cc(=O)oc2c1 | 5.45 | 
2 | COc1cc2c(cc1OC)C1CC(=O)C(CC(C)C)CN1CC2 (configuration not stated) [TETRABENAZINE] |  | 7.70
